In US20150150878A1, “Methods For Inhibiting Viruses By Targeting Cathepsin-L Cleavage Sites In The Viruses' Glycoproteins” (priority 2012, published 2015):
Several values for one entry are separate records, joined by “and”; a condition that tells them apart may be missing. Equal entries are not always repeated. Structures can show the parent of a compound that is named as a salt. Where two headings read alike, the source gives them in different places. Residues, ends and D or L forms follow the SMILES beside them. *: point of attachment. Cbz = O=C(OCc1ccccc1)*

What was measured:
[1] = system: SARS-CoV pseudotyped virus; assay type: cell-based
[2] = molecular target: T1, cathepsin L (Homo sapiens, UniProt P07711); assay type: biochemical; set-up: human cathepsin L purified from human liver (Sigma Aldrich); purchased Sigma Aldrich; host or cells: human liver (tissue-purified)
[3] = molecular target: T1, cathepsin L; assay type: biochemical; set-up: human cathepsin L purified from human liver (Sigma Aldrich); purchased Sigma Aldrich; host or cells: human liver (tissue-purified); remark: listed apart in the source
[4] = system: SARS-CoV-S pseudotyped virus; test: microbe, parasite or virus in culture; assay type: cell-based; conditions: for inhibition at 10 µM: read-out: inhibition of SARS-CoV pseudotyped virus entry; for IC50: read-out: IC50 against SARS-CoV-S pseudotyped virus
[5] = system: EBOV-GP pseudotyped virus; test: microbe, parasite or virus in culture; assay type: cell-based, Ebola virus; conditions: for inhibition at 10 µM: read-out: inhibition of EBOV pseudotyped virus entry; for IC50: read-out: IC50 against EBOV pseudotyped virus
[6] = molecular target: T1, cathepsin L; assay type: biochemical; set-up: human cathepsin L purified from human liver (Sigma Aldrich); purchased Sigma Aldrich; host or cells: human liver (tissue-purified); remark: listed apart in the source
[7] = molecular target: T1, cathepsin L; assay type: biochemical; set-up: human cathepsin L purified from human liver (Sigma Aldrich); purchased Sigma Aldrich; host or cells: human liver (tissue-purified); remark: listed apart in the source
[8] = system: 293FT cells
[9] = molecular target: T1, cathepsin L; assay type: biochemical; set-up: human cathepsin L purified from human liver (Sigma Aldrich); purchased Sigma Aldrich; host or cells: human liver (tissue-purified); remark: listed apart in the source
[10] = molecular target: T1, cathepsin L; assay type: biochemical
[11] = molecular target: T1, cathepsin L; assay type: biochemical; remark: listed apart in the source
[12] = Severe acute respiratory syndrome coronavirus, 72 h

T1 sequence (P07711 114-333): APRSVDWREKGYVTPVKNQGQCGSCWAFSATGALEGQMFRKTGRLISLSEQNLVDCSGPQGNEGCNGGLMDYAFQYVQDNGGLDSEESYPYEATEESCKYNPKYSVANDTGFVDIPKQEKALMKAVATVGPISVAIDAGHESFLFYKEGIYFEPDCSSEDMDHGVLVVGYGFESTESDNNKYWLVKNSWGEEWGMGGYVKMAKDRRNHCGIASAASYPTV

Compound | inhibition of SARS-CoV pseudotyped virus entry [1] | Inhibition of cleavage of NPY peptide by Cathepsin-L [2] | percentage inhibition against human Pro-NPY peptide [2] | Inhibition of cleavage of Ebola peptide by Cathepsin-L [3] | percentage inhibition against Ebola peptide [3] | inhibition at 10 µM [4, 12] | inhibition at 10 µM ([5]; Zaire ebolavirus, 72 h) | Inhibition of cleavage of Nipah peptide by Cathepsin-L [6] | percentage inhibition against Nipah peptide [6] | Inhibition of cleavage of SARS peptide by Cathepsin-L [7] | percentage inhibition against SARS peptide [7] | cytotoxic effect on 293FT cells [8] | Inhibition of cleavage of Hendra peptide by Cathepsin-L [9] | percentage inhibition against Hendra peptide [9] | inhibition of Cat L mediated cleavage of SARS-CoV-S-flag protein [10] | other results
O=C[C@H](Cc1ccc(O)cc1)NC(=O)[C@H](Cc1ccccc1)NC(=O)OCc1ccccc1 [cathepsin L inhibitor, Z-Phe-Tyr-CHO] (Cbz-Phe-Tyr-aldehyde) | 60% and 58% | – | – | – | – | – | – | – | – | – | – | – | – | – | – | –
CN(C)C(=O)COC(=O)Cc1ccc(OC(=O)c2ccc(NC(=N)N)cc2)cc1 [protease inhibitor, Camostat mesylate] | 70% | – | – | – | – | – | – | – | – | – | – | – | – | – | – | –
O=C(Nc1cccc(C(F)(F)F)c1)Nc1ccc(Cl)c(Cl)c1 [Compound 5182554, 1-(3,4-dichlorophenyl)-3-(3-(trifluoromethyl)phenyl)urea] | – | 7.4% | 14.8% | 31% | 77% | 49.3% | 60.5% | 44% | 56.5% | 78.1% | 72.6% | toxic | 49.4% | 50.9% | – | cytotoxicity ([8]; human): 20-100%
COC(=O)CN(C#N)c1nc(NC(C)C)nc(NC(C)C)n1 [Compound 5705213, methyl 2-(N-(4,6-bis(isopropylamino)-1,3,5-triazin-2-yl)cyanamido)acetate] | 50% and 60% | 18% | 20% | 42% | 81.3% | 64.7% | 39.8% | 76.3% | 90.7% | 79.8% | 90.1% | – | 84.3% | 94.2% | dose dependent inhibition | IC50 [4, 12]: 9 µM; IC50 ([5]; Zaire ebolavirus, 72 h): 15 µM; cell viability ([8]; human): over 80%; change of Vmax in presence of the inhibitor [11]: decrease; mechanism of inhibition [11]: mixed inhibitor
CCNc1nc(NC(C)(C)C)nc(N(C#N)CC(=O)OC)n1 [Compound 7402683, methyl 2-(N-(4-(tert-butylamino)-6-(ethylamino)-1,3,5-triazin-2-yl)cyanamido)acetate] | – | – | – | – | – | – | – | – | – | – | – | no significant cytotoxicity | – | – | dose dependent inhibition | inhibition of SARS-CoV pseudotyped virus entry ([4]; 10 µM): 68.3%; IC50 [4]: 6 µM; inhibition of EBOV pseudotyped virus entry ([5]; 10 µM): 53.3%; IC50 [5]: 10 µM
